Results as given in ChEMBL document CHEMBL1201862, “PubChem BioAssay data set” (2004).
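Assay format: 96-well plates, 48-hour exposure. At the GI50, growth is halved.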 Calls of active or inactive are those of the source. Rule as the data show it: active = GI50 up to about 1.1 µM and inactive = higher.

Tests used:
Experiment in all cases: growth of human tumour cells (NCI), 48 h
[1] = tested on: MOLT-4
[2] = tested on: U-251
[3] = tested on: PC-3
[4] = tested on: EKVX
[5] = tested on: A549
[6] = tested on: OVCAR-4
[7] = tested on: RPMI-8226
[8] = tested on: CCRF-CEM
[9] = tested on: SK-MEL-2
[10] = tested on: DU-145
[11] = tested on: HOP-92
[12] = tested on: SK-MEL-28
[13] = tested on: UACC-257
[14] = tested on: COLO 205
[15] = tested on: UO-31
[16] = tested on: LOX IMVI
[17] = tested on: MCF7
[18] = tested on: HT-29
[19] = tested on: CAKI-1
[20] = tested on: NCI-H522

Measured: GI50

CC(C)(C)c1cc2c(O)c(c1)COCc1cc(C(C)(C)C)cc(c1O)COCc1cc(C(C)(C)C)cc(c1O)COC2
inactive: [1] 48 µM | [2] > 100 µM | [3] > 100 µM | [4] > 100 µM | [5] > 100 µM | [6] > 100 µM | [7] 50.4 µM | [8] 59 µM | [9] > 100 µM | [10] 32.5 µM | [11] > 100 µM | [12] > 100 µM | [13] > 100 µM | [14] > 100 µM | [15] 35.5 µM | [16] 29.4 µM | [17] > 100 µM

COc1ccc(/C=C2\NC(=S)N(CN3CCOCC3)C2=O)cc1
inactive: [1] > 100 µM | [2] > 100 µM | [3] > 100 µM | [4] > 100 µM | [5] > 100 µM | [6] > 100 µM | [7] > 100 µM | [8] > 100 µM | [9] > 100 µM | [10] > 100 µM | [11] > 100 µM | [12] > 100 µM | [13] > 100 µM | [14] > 100 µM | [15] > 100 µM | [18] > 100 µM | [16] > 100 µM | [17] > 100 µM

Cc1ccc(-n2c(Cn3nnc(-c4cccnc4)n3)nn(C3OC(COC(=O)c4ccccc4)C(OC(=O)c4ccccc4)C3OC(=O)c3ccccc3)c2=S)cc1 (stereo not given)
inactive: [1] > 100 µM | [2] > 100 µM | [3] > 100 µM | [4] > 100 µM | [5] > 100 µM | [6] > 100 µM | [7] > 100 µM | [19] > 100 µM | [8] > 100 µM | [9] > 100 µM | [10] > 100 µM | [12] > 100 µM | [13] > 100 µM | [14] > 100 µM | [15] > 100 µM | [18] > 100 µM | [20] > 100 µM | [16] > 100 µM | [17] > 100 µM

O=C(/C(=N\Nc1ccc([N+](=O)[O-])cc1[N+](=O)[O-])NC12CC3CC(CC(C3)C1)C2)C(Br)C(=O)c1ccccc1 (stereo not given)
inactive: [1] 3.52 µM | [2] 2.85 µM | [3] 2.61 µM | [4] 3.56 µM | [5] 3.33 µM | [6] 2.77 µM | [7] 1.84 µM | [19] 3.2 µM | [8] 2.67 µM | [9] 2.12 µM | [10] 4.48 µM | [11] 2.79 µM | [12] 9.31 µM | [13] 1.88 µM | [14] 2.18 µM | [15] 6.12 µM | [18] 4.45 µM | [16] 2.43 µM | [17] 3.86 µM

COCCOC(C)C(=O)C(O)S(=O)(=O)O (stereo not given)
inactive: [1] > 100 µM | [2] > 100 µM | [3] > 100 µM | [4] > 100 µM | [5] > 100 µM | [6] > 100 µM | [7] > 100 µM | [8] > 100 µM | [9] > 100 µM | [10] > 100 µM | [11] > 100 µM | [12] > 100 µM | [13] > 100 µM | [14] > 100 µM | [15] > 100 µM | [18] > 100 µM | [20] > 100 µM | [17] > 100 µM

Cc1ccc2c(c1)C(=O)c1ccc(C)nc1C2=O
inactive: [1] > 100 µM | [2] 32.4 µM | [3] 31.8 µM | [4] 40.7 µM | [5] 31.8 µM | [6] 27.7 µM | [7] 43.3 µM | [19] 41.7 µM | [8] 58.7 µM | [9] 69.2 µM | [10] 49.4 µM | [12] 46.8 µM | [13] 24 µM | [14] 31.9 µM | [15] 40.9 µM | [18] 31.8 µM | [20] 25.9 µM | [16] 21.9 µM | [17] 27.4 µM

O=c1[nH]c(=O)c2ncn(-c3ccc([N+](=O)[O-])cn3)c2[nH]1
inactive: [1] > 100 µM | [2] > 100 µM | [3] > 100 µM | [4] > 100 µM | [5] > 100 µM | [6] > 100 µM | [7] > 100 µM | [19] > 100 µM | [8] > 100 µM | [9] > 100 µM | [10] > 100 µM | [11] > 100 µM | [12] > 100 µM | [13] > 100 µM | [14] > 100 µM | [15] > 100 µM | [18] > 100 µM | [16] > 100 µM | [17] > 100 µM

CCOC(=O)c1cn2c(n1)sc1cccc(C)c12
inactive: [3] > 100 µM | [4] 52.6 µM | [5] > 100 µM | [19] > 100 µM | [10] > 100 µM | [13] > 100 µM | [14] > 100 µM | [15] 72.8 µM | [20] > 100 µM | [16] > 100 µM | [17] > 100 µM

CC1CCCc2c(CC3CC(=O)NC(=O)C3)nc(N)nc21 (stereo not given)
inactive: [1] > 100 µM | [2] > 100 µM | [3] > 100 µM | [4] > 100 µM | [5] > 100 µM | [6] > 100 µM | [7] > 100 µM | [19] > 100 µM | [8] > 100 µM | [9] > 100 µM | [10] > 100 µM | [11] > 100 µM | [12] > 100 µM | [13] > 100 µM | [14] > 100 µM | [18] > 100 µM | [16] > 100 µM | [17] > 100 µM

C=CC(C)(C)c1cc([C@@H]2COc3cc(O)ccc3C2=O)c(O)c(OC)c1OC
inactive: [1] 7.01 µM | [2] 13.5 µM | [3] 12.9 µM | [4] 12.1 µM | [5] 15.8 µM | [6] 3.94 µM | [8] 16.6 µM | [9] 15.9 µM | [10] 14.8 µM | [11] 6.1 µM | [12] 19.5 µM | [13] 13 µM | [14] 22 µM | [15] 10.9 µM | [18] 20.5 µM | [20] 4.25 µM | [16] 16.6 µM | [17] 14.8 µM

COc1ccc([N+](=O)[O-])cc1[I+]c1cc([N+](=O)[O-])ccc1OC
inactive: [2] 16.1 µM | [3] 52 µM | [4] 33.8 µM | [5] 45.8 µM | [7] 23.7 µM | [19] 38.6 µM | [8] 25.4 µM | [9] 27.5 µM | [10] > 100 µM | [12] 7.64 µM | [13] 33.6 µM | [14] 68.9 µM | [15] 60.5 µM | [18] 38 µM | [20] 27 µM | [16] 29.4 µM | [17] 31.9 µM

Cc1c(F)c(NC(=O)CN(C)C)c2c(=O)cc(-c3ccc(NC(=O)CN(C)C)c(F)c3)oc2c1F
inactive: [1] 11.2 µM | [2] 14.2 µM | [3] 16 µM | [5] 18.6 µM | [6] 18.9 µM | [7] 16.8 µM | [19] 10.9 µM | [8] 21.5 µM | [9] 19.2 µM | [10] 13.6 µM | [12] 21.5 µM | [13] 21.9 µM | [14] 10.9 µM | [15] 13.6 µM | [18] 14.6 µM | [20] 17.5 µM | [16] 14.9 µM | [17] 13.4 µM

COc1ccc2c(c1C)C(=O)C(O)(CC=C(C)C)O2 (stereo not given)
inactive: [1] > 100 µM | [2] > 100 µM | [3] 62.8 µM | [4] > 100 µM | [5] > 100 µM | [7] > 100 µM | [19] > 100 µM | [8] > 100 µM | [9] > 100 µM | [10] > 100 µM | [12] > 100 µM | [13] > 100 µM | [14] > 100 µM | [15] > 100 µM | [18] > 100 µM | [20] > 100 µM | [16] > 100 µM | [17] > 100 µM

CC(=O)C1=C(C)N2C(=NC3=C(CCc4ccccc43)C2c2ccc(F)cc2)S1 (stereo not given)
inactive: [1] 2.59 µM | [2] 84.7 µM | [3] 89.7 µM | [4] 24 µM | [5] > 100 µM | [6] 56.1 µM | [7] 17.5 µM | [8] 40.3 µM | [9] > 100 µM | [10] > 100 µM | [11] 63.1 µM | [12] > 100 µM | [13] 79.4 µM | [14] 58.1 µM | [15] 52.7 µM | [18] 84.1 µM | [16] 44.2 µM | [17] 60.5 µM

COC(=O)C1=C(N)C2=C(N)Oc3ccccc3C2CC1=C(C#N)C#N (stereo not given)
inactive: [1] 33.4 µM | [2] 35.5 µM | [3] 28.1 µM | [4] 29.1 µM | [5] 32.6 µM | [6] 30.2 µM | [7] 19.1 µM | [19] 23.2 µM | [8] 24.2 µM | [9] 25.9 µM | [10] 26.5 µM | [13] 34.7 µM | [14] 22.5 µM | [15] 19.2 µM | [18] 26.2 µM | [20] 15.8 µM | [16] 18.8 µM | [17] 12.7 µM
